Data reported in patent US20220106304A1, “Transcription Factor BRN2 Inhibitory Compounds as Therapeutics and Methods for Their Use” (The University of British Columbia, priority 2018, published 2022).

Biological target: T1, BRN2 (Homo sapiens, UniProt P20265)
T1 sequence (P20265 1-443): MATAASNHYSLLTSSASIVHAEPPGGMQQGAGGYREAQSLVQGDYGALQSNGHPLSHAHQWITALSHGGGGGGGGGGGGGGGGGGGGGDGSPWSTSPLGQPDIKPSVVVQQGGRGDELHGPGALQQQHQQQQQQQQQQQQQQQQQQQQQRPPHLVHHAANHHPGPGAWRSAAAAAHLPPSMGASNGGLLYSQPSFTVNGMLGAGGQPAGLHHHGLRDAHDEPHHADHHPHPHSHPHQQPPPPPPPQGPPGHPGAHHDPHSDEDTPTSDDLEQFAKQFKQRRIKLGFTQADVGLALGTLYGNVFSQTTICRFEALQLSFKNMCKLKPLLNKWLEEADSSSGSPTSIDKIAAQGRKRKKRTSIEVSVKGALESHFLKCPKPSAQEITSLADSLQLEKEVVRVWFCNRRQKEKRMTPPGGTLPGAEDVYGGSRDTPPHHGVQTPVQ
Assay: cell-based
Details: for % BRN2 Inhibition (10 μM): 10 μM compound; for % BRN2 Inhibition (10 μM) / % BRN2 Inhibition (30 μM): 24 hours, 42D^ENZR cells stably expressing BRN2-luciferase reporter; for % BRN2 Inhibition (10 μM) / % BRN2 Inhibition (30 μM) / inhibition at 10 µM / inhibition at 30 µM: negative = activation; for % BRN2 Inhibition (30 μM): 30 μM compound; for inhibition at 10 µM: read-out: % BRN2 Inhibition (10 μM), 10 μM compound, 24 hours, 42D^ENZR cells stably expressing BRN2-luciferase reporter; for inhibition at 30 µM: read-out: % BRN2 Inhibition (30 μM), 30 μM compound, 24 hours, 42D^ENZR cells stably expressing BRN2-luciferase reporter; for cell death (30 μM): cell death = severe toxicity at a low dose
From the text: Decreased expression of luciferase protein is validated via western blot to confirm downregulation and avoid false positive molecules that inhibit luciferase protein activity and not BRN2-drive luciferase expression. Molecules are prioritized by their inhibition potency to measure direct interaction with BRN2 in Step 2.
In TABLES 1 and 2, when a single value is mentioned in columns Met Stab % and T½, it refers to compound's stability in MLM and when two values are given they represent HLM/MLM. There is a distinction in TABLES 1 and 2 difference between “Active” and “Specific” or “Specificity”. Compounds are first tested to quantify inhibition of BRN2 transcriptional activity in a luciferase assay to determine “Activity” at […] and 30 μM concentrations. […] Where data is not available “na” is inserted. Where data has yet to be calculated the notation “nc” is used.

SMILES | % BRN2 Inhibition (10 μM) | % BRN2 Inhibition (30 μM) | inhibition at 10 µM | inhibition at 30 µM | cell death (30 μM)
CCn1c(-c2csc(-c3ccccn3)n2)nc2ccccc21 [VPC-18-15] | insoluble | insoluble |  |  | 
Cn1c(-c2ccc(-c3ccccc3)o2)nc2ccc([N+](=O)[O-])cc21 [VPC-18-30, 1-Methyl-6-nitro-2-(5-phenylfuran-2-yl)-1H-benzo[d]imidazole] |  |  | 2.63% | 17.4% | 
Cn1c(-c2ccc(-c3ccc(Br)cc3Cl)o2)nc2ccc(C(F)(F)F)cc21 [VPC-18-34, 2-(5-(4-Bromo-2-chlorophenyl)furan-2-yl)-1-methyl-6-(trifluoromethyl)-1H-benzo[d]imidazole] |  |  | -0.86% | 46.7% | 
Cn1c(-c2csc(-c3ccccc3)n2)nc2ccc(Cl)cc21 [VPC-18-37, 4-(6-Chloro-1-methyl-1H-benzo[d]imidazol-2-yl)-2-phenylthiazole] |  |  | -14.5% | -58.7% | 
c1ccc2oc(-c3csc(N4CC5CC4CO5)n3)cc2c1 (stereo not shown) [VPC-18-38, 5-(4-(Benzofuran-2-yl)thiazol-2-yl)-2-oxa-5-azabicyclo[2.2.1]heptane] |  |  | -51.2% | 67% | 
Cn1c(-c2ccc(-c3ccc(F)cc3F)o2)nc2ccc([N+](=O)[O-])cc21 [VPC-18-39, 2-(5-(2,4-Difluorophenyl)furan-2-yl)-1-methyl-6-nitro-1H-benzo[d]imidazole] |  |  | -150% | -63.1% | 
O=[N+]([O-])c1ccc2nc(-c3ccc(-c4ccc(Br)cc4Cl)o3)[nH]c2c1 [VPC-18-40, 2-(5-(4-Bromo-2-chlorophenyl)furan-2-yl)-6-nitro-1H-benzo[d]imidazole] |  |  | -32.7% | -84.1% | 
Cn1c(-c2ccc(-c3cncnc3)o2)nc2ccccc21 [VPC-18-43, 1-Methyl-2-(5-(pyrimidin-5-yl)furan-2-yl)-1H-benzo[d]imidazole] |  |  | -124% | -83% | 
O=[N+]([O-])c1ccc(-c2nc(-c3cc4ccccc4o3)cs2)cc1 [VPC-18-44, 4-(Benzofuran-2-yl)-2-(4-nitrophenyl)thiazole] |  |  | -45% | -104% | 
NS(=O)(=O)c1ccc2nc(-c3csc(-c4ccccc4F)n3)[nH]c2c1 [VPC-18-46, 2-(2-(2-Fluorophenyl)thiazol-4-yl)-1H-benzo[d]imidazole-6-sulfonamide] |  |  | -69.6% | -158% | 
O=[N+]([O-])c1ccc(-c2nc(-c3cc4ccccc4o3)cs2)o1 [VPC-18-49, 4-(Benzofuran-2-yl)-2-(5-nitrofuran-2-yl)thiazole] |  |  | -48% | -21% | 
Cn1c(-c2ccc(N3CC4CC3CO4)o2)nc2ccccc21 (stereo not shown) [VPC-18-50, 5-(5-(1-Methyl-1H-benzo[d]imidazol-2-yl)furan-2-yl)-2-oxa-5-azabicyclo[2.2.1]heptane] |  |  | -26.6% | 27.5% | 
O=[N+]([O-])c1ccc2cc(-c3csc(-c4ccco4)n3)oc2c1 [VPC-18-52, 2-(Furan-2-yl)-4-(6-nitrobenzofuran-2-yl)thiazole] |  |  | -15.8% | -46% | 
O=[N+]([O-])c1ccc(-c2nc(-c3cc4ccc(F)cc4o3)cs2)o1 [VPC-18-54, 4-(6-Fluorobenzofuran-2-yl)-2-(5-nitrofuran-2-yl)thiazole] |  |  | -60% | -45% | 
O=[N+]([O-])c1ccc2cc(-c3csc(-c4ccc(F)cc4F)n3)oc2c1 [VPC-18-55, 2-(2,4-Difluorophenyl)-4-(6-nitrobenzofuran-2-yl)thiazole] |  |  | -9.94% | -54% | 
Cn1c(-c2csc(-c3ccc(Br)cc3F)n2)nc2ccc(F)cc21 [VPC-18-56, 2-(4-Bromo-2-fluorophenyl)-4-(6-fluoro-1-methyl-1H-benzo[d]imidazol-2-yl)thiazole] | INACTIVE | INACTIVE |  |  | 
Cc1c(-c2csc(-c3ccc(Br)cc3F)n2)oc2cc(F)ccc12 [VPC-18-57, 2-(4-Bromo-2-fluorophenyl)-4-(6-fluoro-3-methylbenzofuran-2-yl)thiazole] | INACTIVE | INACTIVE |  |  | 

SMILES | % BRN2 Inhibition (10 μM) | % BRN2 Inhibition (30 μM) | inhibition at 10 µM | inhibition at 30 µM | cell death (30 μM)
Cn1c(-c2ccc(C3CCCO3)o2)nc2ccccc21 (stereo not shown) [VPC-18-58, 1-Methyl-2-(5-(tetrahydrofuran-2-yl)furan-2-yl)-1H-benzo[d]imidazole] | INACTIVE | INACTIVE |  |  | 
Clc1cc(Br)ccc1-c1nc(-c2cc3ccccc3o2)cs1 [VPC-18-59, 4-(Benzofuran-2-yl)-2-(4-bromo-2-chlorophenyl)thiazole] | INACTIVE | INACTIVE |  |  | 
Cn1c(-c2ccc(-c3ccc(Br)cc3Cl)o2)nc2ccccc21 [VPC-18-60] |  |  | 13% | -37% | 
Cn1c(-c2ccc(-c3ccccc3)o2)nc2ccc(C(F)(F)F)cc21 [VPC-18-61] |  |  | -97% | -92% | 
Cn1c(-c2ccc(-c3ccc(C#N)cc3)o2)nc2ccccc21 [VPC-18-62] |  |  | -62% | -110% | 
Cn1c(-c2ccc(-c3cccnc3)o2)nc2ccc(C(F)(F)F)cc21 [VPC-18-64] |  |  | -30% | -59% | 
Cn1c(-c2ccc(-c3ccccc3F)o2)nc2ccc(C(F)(F)F)cc21 [VPC-18-65] |  |  | -52% | -3% | 
Cn1c(-c2ccc(C3=CCNCC3)o2)nc2ccccc21 [VPC-18-67] |  |  | -38% | 8% | 
CN1CCC(c2ccc(-c3nc4ccccc4n3C)o2)CC1 [VPC-18-68] |  |  | 11% | 14% | 
Cn1c(-c2ccc(-c3ccc(F)cc3F)o2)nc2ccc(C(F)(F)F)cc21 [VPC-18-69] |  |  | -8% | 12% | 
Cl.Cn1c(-c2ccc(C3=CCNCC3)o2)nc2ccc(C(F)(F)F)cc21 [VPC-18-70, 1-methyl-2-(5-(1,2,3,6-tetrahydropyridin-4-yl)furan-2-yl)-6-(trifluoromethyl)-1H-benzo[d]imidazole hydrochloride] |  |  | 74% | 100% | cell death
Cn1c(-c2ccc(N3CCC(F)(F)CC3)o2)nc2ccc(C(F)(F)F)cc21 [VPC-18-79] |  |  | -12.3% | 2.4% | 
NC(=O)c1ccc2cc(-c3csc(-c4ccco4)n3)oc2c1 [VPC-18-83] |  |  | -40% | -10% | 
Cl.Clc1ccc2cc(-c3csc(C4=CCNCC4)n3)oc2c1 [VPC-18-95, 4-(6-chlorobenzofuran-2-yl)-2-(1,2,3,6-tetrahydropyridin-4-yl)thiazole hydrochloride] |  |  | 79.8% | 100% | cell death
Clc1ccc2cc(-c3csc(C4=CCNCC4)n3)oc2c1 [VPC-18-97, 4-(6-chlorobenzofuran-2-yl)-2-(1,2,3,6-tetrahydropyridin-4-yl)thiazole] | 65% | 99.95% |  |  | 
FC(F)(F)c1cccc2oc(-c3csc(-c4ccco4)n3)cc12 [VPC-18-101] |  |  | -81% | -43% | 
O=C(NC1(c2ccco2)CC1)c1cc2ccc(C(F)(F)F)cc2o1 [VPC-18-119] |  |  | 69.9% | -25% | 
